{
  "source": "patent US9782424B2",
  "about": "“Synergistic combination comprising avermectins and a NSAID for tumor inhibition” (Ectin Research AB, priority 2011, dated 2017)",
  "key": {"[1]": {"tested_on": "colorectal cell line (Colo205)", "assay": "XTT-assay proliferation rate, colorectal cell line Colo205", "type": "cell-based, human", "conditions": "for Proliferation rate compared to medium control: Colo205 (Table 4); for Proliferation rate in per cent compared to untreated medium control: Colo205", "from_the_text": "Commercially available human tumor cell lines were purchased from […], Borás, Sweden). Cell lines from urinary bladder (UM-UC-3, #CRL-1749), colorectal carcinoma (Colo205, #CCL-222 and HT29, #HTB-38), prostate carcinoma (LNCaP, #CRL-1740) and breast carcinoma (ZR-75-1, #CRL-1500) were purchased and stored in liquid nitrogen. […] Tumor cell lines were handled aseptically using a laminar airflow (LAF) bench (Holten 2448, Ninolab, Sweden) and stored in a liquid nitrogen tank and were initiated in culture as previously described (Falk P. Experimental models of the peritoneal environment: Effects of TGF-beta and Hyaluronan. Göteborg: University of Gothenburg; 2008). Briefly, ampoules of frozen cells were thawed by submerging into a 37° C. water bath for 45 s. […] Culture media was changed two-three times a week. Culture flasks (Cell+, Sarstedt, Nümbrecht, Germany) and culture plates (Falcon/BD, Franklin Lakes, N.J., USA) were used for experimental set-ups. […] Described culture techniques and equipment have been used extensively in the laboratory The proliferation rates of the different human tumor cell lines were studied using a method based on the conversion of a sodium salt (XTT-assay, Sigma) into a stable orange color that could be analyzed in a spectrophotometer. The color change is proportional to the mitochondrial dehydrogenase activity resulting in an effective technique for measuring cell toxicity (Roehm N W, Rodgers […], Glasebrook A L. An improved colorimetric assay for cell proliferation and viability utilizing the tetrazolium salt XTT. […] The color change was measured using a 96-well plate reader with software to calculate the absorbance at 450 nm (V-max/Softmax Pro, Molecular Devices, USA). […] RPMI 1640 and EMEM without phenol red was used during the experiments to reduce the red color background signal in the XTT-assay. […] Untreated wells including culture medium only served as untreated controls. The XTT-assay substrate was added and after gentle agitation using a micro plate shaker, absorbencies at 450 and 650 nm were measured. Levels from medium were subtracted and compared with control wells, using culture medium only."}, "[2]": {"tested_on": "human urinary bladder cancer cells", "assay": "Tryphan blue exclusion viability", "type": "cell-based", "conditions": "compared to untreated medium control (FIG. 3)", "procedure": "The effect of Ivermectin, selamectin, abamectin alone, or in combination with ketoconazole, albendazole, ibuprofen, diclofenac and celecoxib on the morphology of cultured human tumor cells was studied. The effect of ivermectin in the presence of increasing concentration of ivermectin was also investigated. Cells were grown into sub-confluence and then sub-cultured into 12 and 24 well plates (Sarstedt, Falcon/BD) for morphology studies, or in 96 well plates (Sarstedt, Falcon/BD) for proliferation studies. Viability of urinary bladder cells was studied using the tryphan blue exclusion method (Freshney R. Culture of animal cells: A manual of basic techniques. New York: Alan R Liss Inc; 1987)."}, "[3]": {"tested_on": "breast cancer cell line 2R-75-1", "assay": "Morphology of cultured tumor cells, ZR-75-1", "type": "cell-based, human", "conditions": "ivermectin 10e-4 to 10e-10 mol/L (FIG. 2)", "procedure": "Commercially available human tumor cell lines were purchased from ATCC (ATCC/LGC-standards, Borás, Sweden). Cell lines from urinary bladder (UM-UC-3, #CRL-1749), colorectal carcinoma (Colo205, #CCL-222 and HT29, #HTB-38), prostate carcinoma (LNCaP, #CRL-1740) and breast carcinoma (ZR-75-1, #CRL-1500) were purchased and stored in liquid nitrogen. Cells were cultured in Roswell Park Memorial Institute media (RPMI-1640) or minimum essential medium with Earl's salts (EMEM) supplemented with 10% Foetal calf serum (FCS, Sigma) and cultured using a 37° C. cell culture incubator (Forma Scientific, NinoLab, Kungsbacka, Sweden) with 5% CO2 humidified atmosphere. Tumor cell lines were handled aseptically using a laminar airflow (LAF) bench (Holten 2448, Ninolab, Sweden) and stored in a liquid nitrogen tank and were initiated in culture as previously described (Falk P. Experimental models of the peritoneal environment: Effects of TGF-beta and Hyaluronan. Göteborg: University of Gothenburg; 2008). Briefly, ampoules of frozen cells were thawed by submerging into a 37° C. water bath for 45 s. Cells were resuspended in 10 ml of preheated RPMI-1640 with 10% FCS and centrifuged in 260 g for 10 min. […] Cells were regularly monitored using an inverted microscope connected to a digital photo equipment (Axiovert 25 and Axiovision, Zeiss, Carl Zeiss AG, Germany) (FIG. 1). […]"}, "[4]": {"tested_on": "colorectal cell line HT29", "assay": "Morphology of cultured tumor cells, HT29", "type": "cell-based, human", "procedure": "Commercially available human tumor cell lines were purchased from ATCC (ATCC/LGC-standards, Borás, Sweden). […] Briefly, ampoules of frozen cells were thawed by submerging into a 37° C. water bath for 45 s. […] With supernatant discarded, cell pellets were further resuspended with 5 ml complete medium into 25 cm^2 cell culture flasks (Cell+, Sarstedt, Nümbrecht, Germany). Tumor cells were cultured until sub-confluence and further sub-cultured with Trypsin (0.5%), EDTA (0.2%) solution (T4174, TE-10x, Sigma) in sterile sodium chloride. Culture media was changed two-three times a week. Culture flasks (Cell+, Sarstedt, Nümbrecht, Germany) and culture plates (Falcon/BD, Franklin Lakes, N.J., USA) were used for experimental set-ups. Cells were regularly monitored using an inverted microscope connected to a digital photo equipment (Axiovert 25 and Axiovision, Zeiss, Carl Zeiss AG, Germany) (FIG. 1). Described culture techniques and equipment have been used extensively in the laboratory\nThe effect of Ivermectin, selamectin, abamectin alone, or in combination with ketoconazole, albendazole, ibuprofen, diclofenac and celecoxib on the morphology of cultured human tumor cells was studied. The effect of ivermectin in the presence of increasing concentration of ivermectin was also investigated. […]"}},
  "data": [
    {"substance": "22,23-dihydroavermectin B1a+22,23-dihydroavermectin B1b [ivermectin]", "values": [
      {"measurement": "Proliferation rate compared to medium control", "setting": "[1]; IVM 1 μmol/L alone", "value": "101.3 ± 4.9", "unit": "%"},
      {"measurement": "Proliferation rate compared to medium control", "setting": "[1]; IVM 10 μmol/L alone", "value": "97.7 ± 8.5", "unit": "%"},
      {"measurement": "Proliferation rate compared to medium control", "setting": "[1]; IVM 100 μmol/L alone", "value": "69.4 ± 11.5", "unit": "%"},
      {"measurement": "Proliferation rate in per cent compared to untreated medium control", "setting": "[1]; ivermectin 10e-9 mol/L", "value": "97 ± 14", "unit": "%"},
      {"measurement": "Proliferation rate in per cent compared to untreated medium control", "setting": "[1]; ivermectin 10e-8 mol/L", "value": "104 ± 8", "unit": "%"},
      {"measurement": "Proliferation rate in per cent compared to untreated medium control", "setting": "[1]; ivermectin 10e-7 mol/L", "value": "69±9", "unit": "%"},
      {"measurement": "Proliferation rate in per cent compared to untreated medium control", "setting": "[1]; ivermectin 10e-6 mol/L", "value": "42±12", "unit": "%"},
      {"measurement": "Proliferation rate in per cent compared to untreated medium control", "setting": "[1]; ivermectin 10e-5 mol/L", "value": "6±1", "unit": "%"},
      {"measurement": "Proliferation rate in per cent compared to untreated medium control", "setting": "[1]; ivermectin 10e-4 mol/L", "value": "4±1", "unit": "%"},
      {"measurement": "Tryphan blue exclusion (viability)", "setting": "[2]", "value": "affected cells in a dose-dependent manner"},
      {"measurement": "Morphological effects over the concentration series", "setting": "[3]", "value": "affected by the highest concentration 10e-4 mol/L only"},
      {"measurement": "Effect on morphology", "setting": "[4]; ivermectin 100 μM", "value": "affected"},
      {"measurement": "Morphological effects over the concentration series", "setting": "[4]; ivermectin 10e-4 to 10e-10 mol/L (FIG. 2)", "value": "not morphologically affected even at the highest concentration"}
    ]}
  ]
}
